Source: patent US9181273B2, “Morpholine-spirocyclic piperidine amides as modulators of ion channels” (Vertex Pharmaceuticals Incorporated, priority 2011, dated 2015)

Target: human NaV subtype, like NaV 1.7 (Homo sapiens, UniProt Q15858)
Assay: E-VIPR optical membrane potential assay with electrical stimulation
Type: cell-based
Conditions: not given
Description: Sodium channels are voltage-dependent proteins that can be activated by inducing membrane voltage changes by applying electric fields. […] The instrument comprises a microtiter plate handler, an optical system for exciting the coumarin dye while simultaneously recording the coumarin and oxonol emissions, a waveform generator, a current- or voltage-controlled amplifier, and a device for inserting electrodes in well. Under integrated computer control, this instrument passes user-programmed electrical stimulus protocols to cells within the wells of the microtiter plate.
24 hours before the assay on E-VIPR, HEK cells expressing human NaV subtype, like NaV 1.7, are seeded in 384-well poly-lysine coated plates at 15,000-20,000 cells per well. Other subtypes are performed in an analogous mode in a cell line expressing the NaV of interest. […] Cells are grown in vented cap flasks, in 90% humidity and 10% CO2, to 100% confluence. They are usually split by trypsinization 1:10 or 1:20, depending on scheduling needs, and grown for 2-3 days before the next split.
To make the solution Add volume of 10% Pluronic F127 stock equal to volumes of CC2-DMPE+DiSBAC6(3). The order of preparation is first mix Pluronic and CC2-DMPE, then add DiSBAC6(3) while vortexing, then add Bath1+β-Cyclodextrin.
1) Pre-spot compounds (in neat DMSO) into compound plates. […] Final compound plate volume will be 80 μL (80-fold intermediate dilution from 1 μL DMSO spot; 160-fold final dilution after transfer to cell plate).
2) Prepare Hexyl Dye Solution.
3) Prepare cell plates. On the day of the assay, medium is aspirated and cells are washed three times with 100 μL of Bath1 Solution, maintaining 25 μL residual volume in each well.
4) Dispense 25 μL per well of Hexyl Dye Solution into cell plates. Incubate for 20-35 minutes at room temp or ambient conditions.
5) Dispense 80 μL per well of Bath1 into compound plates. Acid Yellow-17 (1 mM) is added and Potassium Chloride can be altered from 4.5 to 20 mM depending on the NaV subtype and assay sensitivity.
6) Wash cell plates three times with 100 μL per well of Bath1, leaving 25 μL of residual volume. Then transfer 25 uL per well from Compound Plates to Cell Plates. Incubate for 20-35 minutes at room temp/ambient condition
7) Read Plate on E-VIPR. Use the current-controlled amplifier to deliver stimulation wave pulses for typically 9 seconds and a scan rate of 400 Hz. A pre-stimulus recording is performed for 0.5 seconds to obtain the un-stimulated intensities baseline. The stimulatory waveform is applied for 9 seconds followed by 0.5 seconds of post-stimulation recording to examine the relaxation to the resting state. The stimulatory waveform of the electrical stimulation is specific for each cell type and can vary the magnitude, duration and frequency of the applied current to provide an optimal assay signal.
Data are analyzed and reported as normalized ratios of background-subtracted emission intensities measured in the 460 nm and 580 nm channels. Background intensities are then subtracted from each assay channel. Background intensities are obtained by measuring the emission intensities during the same time periods from identically treated assay wells in which there are no cells. The response as a function of time is then reported as the ratios obtained using the following formula: […]
The data is further reduced by calculating the initial (Ri) and final (Rf) ratios. These are the average ratio values during part or all of the pre-stimulation period, and during sample points during the stimulation period. The response to the stimulus R=Rf/Ri is then calculated and reported as a function of time.
Control responses are obtained by performing assays in the presence of a compound with the desired properties (positive control), such as tetracaine, and in the absence of pharmacological agents (negative control). Responses to the negative (N) and positive (P) controls are calculated as above. The compound antagonist activity A is defined as: […]

Chain of human NaV subtype, like NaV 1.7 (Q15858 whole entry): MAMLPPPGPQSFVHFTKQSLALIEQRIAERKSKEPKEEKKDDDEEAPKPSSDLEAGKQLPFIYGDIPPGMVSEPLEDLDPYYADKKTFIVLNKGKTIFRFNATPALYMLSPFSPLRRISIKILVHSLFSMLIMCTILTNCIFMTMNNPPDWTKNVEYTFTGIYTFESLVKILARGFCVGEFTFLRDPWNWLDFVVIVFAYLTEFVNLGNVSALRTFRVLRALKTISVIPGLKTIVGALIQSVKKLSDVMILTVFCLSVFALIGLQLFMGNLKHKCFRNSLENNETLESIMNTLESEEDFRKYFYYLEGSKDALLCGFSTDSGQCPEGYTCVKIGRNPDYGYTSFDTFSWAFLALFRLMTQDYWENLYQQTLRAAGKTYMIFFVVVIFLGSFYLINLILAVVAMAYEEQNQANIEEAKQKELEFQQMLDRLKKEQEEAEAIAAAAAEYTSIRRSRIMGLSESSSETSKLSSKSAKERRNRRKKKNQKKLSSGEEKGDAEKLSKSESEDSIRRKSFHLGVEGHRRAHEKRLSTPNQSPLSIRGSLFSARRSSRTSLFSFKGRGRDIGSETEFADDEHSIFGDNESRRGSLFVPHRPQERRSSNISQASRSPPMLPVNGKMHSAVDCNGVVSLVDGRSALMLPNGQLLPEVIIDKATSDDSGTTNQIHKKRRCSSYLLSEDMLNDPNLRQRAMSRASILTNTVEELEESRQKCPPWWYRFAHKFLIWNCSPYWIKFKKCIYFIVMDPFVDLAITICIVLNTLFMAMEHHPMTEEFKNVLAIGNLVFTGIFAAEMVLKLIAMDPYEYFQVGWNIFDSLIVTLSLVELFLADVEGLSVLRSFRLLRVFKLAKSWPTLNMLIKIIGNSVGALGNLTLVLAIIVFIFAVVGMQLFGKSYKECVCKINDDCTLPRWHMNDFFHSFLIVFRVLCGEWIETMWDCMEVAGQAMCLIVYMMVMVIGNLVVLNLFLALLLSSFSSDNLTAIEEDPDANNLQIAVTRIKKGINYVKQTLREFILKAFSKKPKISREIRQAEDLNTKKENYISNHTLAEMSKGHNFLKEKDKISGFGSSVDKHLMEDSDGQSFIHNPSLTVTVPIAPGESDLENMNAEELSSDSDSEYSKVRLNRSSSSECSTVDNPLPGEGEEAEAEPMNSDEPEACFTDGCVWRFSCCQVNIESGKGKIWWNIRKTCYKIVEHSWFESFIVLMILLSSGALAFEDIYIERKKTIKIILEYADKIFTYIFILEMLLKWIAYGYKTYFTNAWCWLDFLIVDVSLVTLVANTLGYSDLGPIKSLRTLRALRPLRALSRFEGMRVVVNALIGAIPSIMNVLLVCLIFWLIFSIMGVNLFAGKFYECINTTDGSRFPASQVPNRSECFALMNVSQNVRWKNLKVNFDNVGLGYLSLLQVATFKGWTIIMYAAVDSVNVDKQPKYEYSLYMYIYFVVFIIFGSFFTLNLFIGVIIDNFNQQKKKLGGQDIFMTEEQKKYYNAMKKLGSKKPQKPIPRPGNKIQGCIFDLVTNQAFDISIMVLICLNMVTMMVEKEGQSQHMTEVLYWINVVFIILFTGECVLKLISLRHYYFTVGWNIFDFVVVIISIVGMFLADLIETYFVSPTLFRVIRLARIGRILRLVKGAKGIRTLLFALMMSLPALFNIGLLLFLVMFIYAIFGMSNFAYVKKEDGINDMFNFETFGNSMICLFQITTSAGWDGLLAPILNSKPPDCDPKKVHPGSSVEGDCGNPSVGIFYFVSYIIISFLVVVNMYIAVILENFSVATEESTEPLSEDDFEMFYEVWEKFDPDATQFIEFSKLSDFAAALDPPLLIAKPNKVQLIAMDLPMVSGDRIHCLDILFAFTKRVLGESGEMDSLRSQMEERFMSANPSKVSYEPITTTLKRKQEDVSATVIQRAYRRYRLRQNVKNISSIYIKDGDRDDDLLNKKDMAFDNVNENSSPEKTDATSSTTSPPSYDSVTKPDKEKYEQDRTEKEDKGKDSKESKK

With `COc1cc(C(=O)N2CCC3(CC2)CN(CC(F)F)CC(c2ccccn2)O3)ccc1OC(C)C` (centres unmarked) [Compound 3] the IC50 was < 2 µM.

Same assay, conditions: active against one or more sodium channels; assay and NaV subtype not specified for Table 3; read-out: IC50 Binned Activity Data

`CCC1CN(c2ncccn2)CC2(CCN(C(=O)c3ccc(C(O)(CC)CC)c(C)c3)CC2)O1` (centres unmarked) [Compound 1] and `COCC1CN(c2ncccn2)CC2(CCN(C(=O)c3ccc(C(C)(C)O)c(F)c3)CC2)O1` (centres unmarked) [Compound 53] fall in the same range of IC50: 2 to 5 µM for the first, 2 to 5 µM for the second.

Compared with `Cc1cc(C(=O)N2CCC3(CC2)CN(Cc2ccccc2)CC(CCO)O3)ccc1OC(C)C` (centres unmarked) [Compound 2], `Cc1cc(C(=O)N2CCC3(CC2)CN(CCO)CC(c2ccccc2)O3)ccc1OC(C)C` (centres unmarked) [Compound 25] is lower in IC50: > 5 µM for the first, 2 to 5 µM for the second. The second is the more potent here.

Compared with `CC(C)Oc1ccc(C(=O)N2CCC3(CC2)CN(CC(F)F)CC(c2ccc(F)cc2)O3)cc1CO` (centres unmarked) [Compound 4], `Cc1cc(C(=O)N2CCC3(CC2)CN(CC(F)F)CC(c2ccc(F)cc2)O3)ccc1OC(C)C` (centres unmarked) [Compound 27] is lower in IC50: 2 to 5 µM for the first, < 2 µM for the second.

First: COCC1CN(C2CCC(C)CC2)CC2(CCN(C(=O)c3ccc(OC(C)C)c(C)c3)CC2)O1 (centres unmarked) [Compound 5]
Second: COCC1CN(C)CC2(CCN(C(=O)c3ccc(OC(C)C)c(C)c3)CC2)O1 (centres unmarked) [Compound 32]
The IC50 of the first is lower: < 2 µM for the first, > 5 µM for the second. The first is the more potent here.

First: Cc1cc(C(=O)N2CCC3(CC2)CN(c2ncccn2)CCO3)ccc1OC(C)C [Compound 6]
Second: Cc1cc(C(=O)N2CCC3(CC2)CN(c2ncccn2)C(C)(C)CO3)ccc1OC(C)C [Compound 51]
The IC50 of the first is lower: 2 to 5 µM for the first, > 5 µM for the second. The first is the more potent here.

`Cc1cc(C(=O)N2CCC3(CC2)CN(C)CC(c2ccccc2)O3)ccc1OC(C)C` (centres unmarked) [Compound 7] and `CCN1CC(c2ccccc2)OC2(CCN(C(=O)c3ccc(OC(C)C)c(C)c3)CC2)C1` (centres unmarked) [Compound 22] cannot be ordered by IC50: < 2 µM for the first, < 2 µM for the second.

First: COCC1CN(c2ncccn2)CC2(CCN(C(=O)c3ccc(S(=O)(=O)C(F)F)cc3)CC2)O1 (centres unmarked) [Compound 8]
Second: COCC1CN(c2ncccn2)CC2(CCN(C(=O)c3ccc(OC(C)C)c(F)c3)CC2)O1 (centres unmarked) [Compound 19]
The IC50 of the first is higher: 2 to 5 µM for the first, < 2 µM for the second.

First: CCN1CC2(CCN(C(=O)c3ccc(OC(C)C)c(C)c3)CC2)OC(c2ccccc2)C1=O (centres unmarked) [Compound 9]
Second: CCN1CC2(CCN(C(=O)c3ccc(OC(C)C)c(C)c3)CC2)OCC1c1ccccc1 (centres unmarked) [Compound 10]
The IC50 of the first is higher: 2 to 5 µM for the first, < 2 µM for the second. The second is the more potent here.

`Cc1cc(C(=O)N2CCC3(CC2)CN(CC(F)F)CC(c2ccnn2C)O3)ccc1OC(C)C` (centres unmarked) [Compound 11] and `CCn1nccc1C1CN(CC(F)F)CC2(CCN(C(=O)c3ccc(OC(C)C)c(C)c3)CC2)O1` (centres unmarked) [Compound 20] cannot be ordered by IC50: < 2 µM for the first, < 2 µM for the second.

First: CC(C)(C)S(=O)(=O)c1ccc(C(=O)N2CCC3(CC2)CN(CC(F)(F)F)CC(c2ccccc2)O3)cc1 (centres unmarked) [Compound 12]
Second: CC(C)(O)Cc1ccc(C(=O)N2CCC3(CC2)CN(CC(F)(F)F)CC(c2ccccc2)O3)cc1F (centres unmarked) [Compound 39]
The IC50 of the first is lower: < 2 µM for the first, 2 to 5 µM for the second. The first is the more potent here.

`CC(C)(C)Oc1ccc(C(=O)N2CCC3(CC2)CN(CC(F)(F)F)CC(c2ccccc2)O3)nc1` (centres unmarked) [Compound 13] and `Cc1nc(C(=O)N2CCC3(CC2)CN(CC(F)(F)F)CC(c2ccccc2)O3)ccc1OC(C)C` (centres unmarked) [Compound 42] cannot be ordered by IC50: < 2 µM for the first, < 2 µM for the second.

`COCC1CN(Cc2ccccn2)CC2(CCN(C(=O)c3ccc(OC(C)C)c(C)c3)CC2)O1` (centres unmarked) [Compound 14] and `COCC1CN(CC#N)CC2(CCN(C(=O)c3ccc(OC(C)C)c(C)c3)CC2)O1` (centres unmarked) [Compound 23] cannot be ordered by IC50: > 5 µM for the first, > 5 µM for the second.

`COCC1CN(c2ncccn2)CC2(CCN(C(=O)c3ccc(OC(C)C)c(CO)c3)CC2)O1` (centres unmarked) [Compound 15] and `COCC1CN(c2ccncc2)CC2(CCN(C(=O)c3ccc(OC(C)C)c(C)c3)CC2)O1` (centres unmarked) [Compound 31] cannot be ordered by IC50: > 5 µM for the first, > 5 µM for the second.

`COCC1CN(c2cccc(C)n2)CC2(CCN(C(=O)c3ccc(OC(C)C)c(C)c3)CC2)O1` (centres unmarked) [Compound 16] and `Cc1cccc(C2CN(CC(F)F)CC3(CCN(C(=O)c4ccc(OC(C)C)c(C)c4)CC3)O2)n1` (centres unmarked) [Compound 37] cannot be ordered by IC50: < 2 µM for the first, < 2 µM for the second.

`CCC1CN(c2ccccn2)CC2(CCN(C(=O)c3ccc(C4(O)CCCC4)c(F)c3)CC2)O1` (centres unmarked) [Compound 17] and `CCC1CN(c2ccccn2)CC2(CCN(C(=O)c3ccc(C4(O)CCCCC4)cc3)CC2)O1` (centres unmarked) [Compound 54] cannot be ordered by IC50: < 2 µM for the first, < 2 µM for the second.

First: CCC1CN(C(C)(C)C)CC2(CCN(C(=O)c3ccc(OC(C)C)c(C)c3)CC2)O1 (centres unmarked) [Compound 18]
Second: CCC1CN(CC)CC2(CCN(C(=O)c3ccc(OC(C)C)c(C)c3)CC2)O1 (centres unmarked) [Compound 34]
The IC50 of the first is lower: < 2 µM for the first, > 5 µM for the second. The first is the more potent here.

`Cc1cc(C(=O)N2CCC3(CC2)CN(CC(F)F)CC(c2cc[nH]n2)O3)ccc1OC(C)C` (centres unmarked) [Compound 21] and `Cc1cc(C(=O)N2CCC3(CC2)CN(CC(F)F)CC(c2ccccn2)O3)ccc1OC(C)C` (centres unmarked) [Compound 33] cannot be ordered by IC50: < 2 µM for the first, < 2 µM for the second.

`Cc1cc(C(=O)N2CCC3(CC2)CN(CC(C)(C)O)CC(c2ccccc2)O3)ccc1OC(C)C` (centres unmarked) [Compound 24] and `Cc1cc(C(=O)N2CCC3(CC2)CN(CC(C)C)CC(c2ccccc2)O3)ccc1OC(C)C` (centres unmarked) [Compound 29] cannot be ordered by IC50: < 2 µM for the first, < 2 µM for the second.

`Cc1cc(C2CN(CC(F)(F)F)CC3(CCN(C(=O)c4ccc(OC(C)C)c(C)c4)CC3)O2)n[nH]1` (centres unmarked) [Compound 26] and `CC(C)Oc1ccc(C(=O)N2CCC3(CC2)CN(CC(F)(F)F)CC(c2cc[nH]n2)O3)cc1F` (centres unmarked) [Compound 38] fall in the same range of IC50: 2 to 5 µM for the first, 2 to 5 µM for the second.

`CCN1CC(C)(C)OC2(CCN(C(=O)c3ccc(OC(C)C)c(C)c3)CC2)C1` [Compound 28] and `CCC1COC2(CCN(C(=O)c3ccc(OC(C)C)c(C)c3)CC2)CN1CC` (centres unmarked) [Compound 40] cannot be ordered by IC50: > 5 µM for the first, > 5 µM for the second.

First: CC#CCN1CC(CC)OC2(CCN(C(=O)c3ccc(OC)c(C(F)(F)F)c3)CC2)C1 (centres unmarked) [Compound 30]
Second: CC#CCN1CC(CC)OC2(CCN(C(=O)c3ccc(OC(C)C)c(Cl)c3)CC2)C1 (centres unmarked) [Compound 52]
The IC50 of the first is higher: > 5 µM for the first, < 2 µM for the second.

First: Cc1cc(C(=O)N2CCC3(CC2)CN(CC(F)F)CC(c2nccn2C)O3)ccc1OC(C)C (centres unmarked) [Compound 35]
Second: Cc1cc(C(=O)N2CCC3(CC2)CN(CC(F)F)CC(c2ccccc2F)O3)ccc1OC(C)C (centres unmarked) [Compound 44]
The IC50 of the first is higher: > 5 µM for the first, < 2 µM for the second. The second is the more potent here.

Compared with `COC(=O)c1ccnc(N2CC(CO)OC3(CCN(C(=O)c4ccc(OC(C)C)c(C)c4)CC3)C2)n1` (centres unmarked) [Compound 36], `CCC1CN(CC2CC2)CC2(CCN(C(=O)c3ccc(OC(C)C)c(C)c3)CC2)O1` (centres unmarked) [Compound 46] is lower in IC50: > 5 µM for the first, < 2 µM for the second.

Compared with `CCC1CN(c2ccccn2)CC2(CCN(C(=O)c3ccc(C(C)(C)O)c(F)c3)CC2)O1` (centres unmarked) [Compound 41], `CC(C)(O)c1ccc(C(=O)N2CCC3(CC2)CN(CC(F)F)CC(c2ccccn2)O3)cc1F` (centres unmarked) [Compound 57] is higher in IC50: < 2 µM for the first, 2 to 5 µM for the second. The first is the more potent here.

First: CCN1CC2(CCN(C(=O)c3ccc(OC(C)C)c(OC)c3)CC2)OCC1c1ccccc1 (centres unmarked) [Compound 43]
Second: CC(C)Oc1ccc(C(=O)N2CCC3(CC2)CN(CC(F)F)CC(c2ccccc2F)O3)cc1F (centres unmarked) [Compound 45]
The IC50 of the first is higher: 2 to 5 µM for the first, < 2 µM for the second. The second is the more potent here.

`COCC1CN(CC2CCC2)CC2(CCN(C(=O)c3ccc(OC(C)C)c(C)c3)CC2)O1` (centres unmarked) [Compound 47] and `CCOCCN1CC(COC)OC2(CCN(C(=O)c3ccc(OC(C)C)c(C)c3)CC2)C1` (centres unmarked) [Compound 55] cannot be ordered by IC50: < 2 µM for the first, < 2 µM for the second.

`CCC(CC)N1CC(COC)OC2(CCN(C(=O)c3ccc(OC(C)C)c(C)c3)CC2)C1` (centres unmarked) [Compound 48] and `Cc1cnc(C2CN(C(C)(C)C)CC3(CCN(C(=O)c4ccc(OC(C)C)c(C)c4)CC3)O2)o1` (centres unmarked) [Compound 49] cannot be ordered by IC50: < 2 µM for the first, < 2 µM for the second.

`CCC1CN(c2ncccn2)CC2(CCN(C(=O)c3ccc(C4(O)CCCC4)c(C)c3)CC2)O1` (centres unmarked) [Compound 50] and `COCC1CN(c2cccc(C(F)(F)F)c2)CC2(CCN(C(=O)c3ccc(C(C)(C)O)c(F)c3)CC2)O1` (centres unmarked) [Compound 58] cannot be ordered by IC50: < 2 µM for the first, < 2 µM for the second.

First: COCC#Cc1ccc(C(=O)N2CCC3(CC2)CN(CC(F)(F)F)CC(c2ccccc2)O3)cc1F (centres unmarked) [Compound 56]
Second: O=C(c1ccc(C(O)C2CC2)cc1)N1CCC2(CC1)CN(CC(F)(F)F)CC(c1ccccc1)O2 (centres unmarked) [Compound 59]
The IC50 of the first is higher: 2 to 5 µM for the first, < 2 µM for the second. The second is the more potent here.
